Test results: PubChem BioAssay AID2060494 (Molecular Pharmacology Branch, DTP, NCI, 2025)
Values belong to the compound of their own block, whether it stands above or below them.

Tested on: 435261-313-R-J1-PDC complex spheroid viability
Test: Anticancer human tumor 435261-313-R-J1-PDC patient-derived colon adenocarcinoma cell line growth inhibition [GQUAD]
Conditions: for IC50: curve of first compound; for viability, T/C: stronger effect = lower value
How it was run: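 Viability of tumor cells grown as complex spheroids with endothelial and stromal cells, exposed to drug combinations. Top concentration at or near clinical Cmax (else 10 microM), diluted in half-log increments.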

[1] = second compound 0.0316 µM, first compound 0.0316 µM
[2] = second compound 0.0316 µM, first compound 0.1 µM
[3] = second compound 0.0316 µM, first compound 0.316 µM
[4] = second compound 0.0316 µM, first compound 1 µM
[5] = second compound 0.0316 µM, first compound 3.16 µM
[6] = second compound 0.0316 µM, first compound 10 µM
[7] = second compound 0.1 µM, first compound 0.0316 µM
[8] = second compound 0.1 µM, first compound 0.1 µM
[9] = second compound 0.1 µM, first compound 0.316 µM
[10] = second compound 0.1 µM, first compound 1 µM
[11] = second compound 0.1 µM, first compound 3.16 µM
[12] = second compound 0.1 µM, first compound 10 µM
[13] = second compound 0.316 µM, first compound 0.0316 µM
[14] = second compound 0.316 µM, first compound 0.1 µM
[15] = second compound 0.316 µM, first compound 0.316 µM
[16] = second compound 0.316 µM, first compound 1 µM
[17] = second compound 0.316 µM, first compound 3.16 µM
[18] = second compound 0.316 µM, first compound 10 µM
[19] = second compound 1 µM, first compound 0.0316 µM
[20] = second compound 1 µM, first compound 0.1 µM
[21] = second compound 1 µM, first compound 0.316 µM
[22] = second compound 1 µM, first compound 1 µM
[23] = second compound 1 µM, first compound 3.16 µM
[24] = second compound 1 µM, first compound 10 µM
[25] = second compound 3.16 µM, first compound 0.0316 µM
[26] = second compound 3.16 µM, first compound 0.1 µM
[27] = second compound 3.16 µM, first compound 0.316 µM
[28] = second compound 3.16 µM, first compound 1 µM
[29] = second compound 3.16 µM, first compound 3.16 µM
[30] = second compound 3.16 µM, first compound 10 µM
[31] = second compound 10 µM, first compound 0.0316 µM
[32] = second compound 10 µM, first compound 0.1 µM
[33] = second compound 10 µM, first compound 0.316 µM
[34] = second compound 10 µM, first compound 1 µM
[35] = second compound 10 µM, first compound 3.16 µM
[36] = second compound 10 µM, first compound 10 µM
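Also: spheroids exposed to the agents for seven days before readout.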
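For viability, T/C in this document: percent of vehicle control viability with DMSO wells as 100%.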

SMILES: COc1cccc2c1C(=O)c1c(O)c3c(c(O)c1C2=O)CC(O)(C(=O)CO)CC3OC1CC(N)C(O)C(C)O1 (stereo unspecified) + CN(C)c1ccc(Nc2c3ccc(NC(=O)CCN4CCCC4)cc3nc3cc(NC(=O)CCN4CCCC4)ccc23)cc1
- IC50 (second compound 0.0316 µM): 491 nM
- IC50 (second compound 0.1 µM): 644 nM
- IC50 (second compound 0.316 µM): 582 nM
- IC50 (second compound 1 µM): 439 nM
- IC50 (second compound 3.16 µM): 152 nM
- IC50 (second compound 10 µM): < 31.6 nM
- viability, T/C [1]: 83.2%
- viability, T/C [2]: 71.2%
- viability, T/C [3]: 65.4%
- viability, T/C [4]: 26.9%
- viability, T/C [5]: 2.29%
- viability, T/C [6]: 5.25%
- viability, T/C [7]: 73.4%
- viability, T/C [8]: 87%
- viability, T/C [9]: 78.7%
- viability, T/C [10]: 32.1%
- viability, T/C [11]: 3.52%
- viability, T/C [12]: 4.61%
- viability, T/C [13]: 76.3%
- viability, T/C [14]: 79.1%
- viability, T/C [15]: 70.5%
- viability, T/C [16]: 31.5%
- viability, T/C [17]: 2.47%
- viability, T/C [18]: 2.91%
- viability, T/C [19]: 83%
- viability, T/C [20]: 69.8%
- viability, T/C [21]: 58.7%
- viability, T/C [22]: 31.9%
- viability, T/C [23]: 1.79%
- viability, T/C [24]: 3.08%
- viability, T/C [25]: 46.8%
- viability, T/C [26]: 62.5%
- viability, T/C [27]: 42%
- viability, T/C [28]: 16.4%
- viability, T/C [29]: 1.33%
- viability, T/C [30]: 3.49%
- viability, T/C [31]: 37.7%
- viability, T/C [32]: 28%
- viability, T/C [33]: 17.7%
- viability, T/C [34]: 12%
- viability, T/C [35]: 2.28%
- viability, T/C [36]: 3.53%

SMILES: CCCS(=O)(=O)Nc1ccc(F)c(C(=O)c2c[nH]c3ncc(-c4ccc(Cl)cc4)cc23)c1F + Cc1[nH]c2ccc(F)cc2c1-c1nc2c3cccnc3c3ncccc3c2[nH]1
- IC50 (second compound 0.0316 µM): 5200 nM
- IC50 (second compound 0.1 µM): 4080 nM
- IC50 (second compound 0.316 µM): 4060 nM
- IC50 (second compound 1 µM): 3250 nM
- IC50 (second compound 3.16 µM): < 31.6 nM
- IC50 (second compound 10 µM): < 31.6 nM
- viability, T/C [1]: 77.2%
- viability, T/C [2]: 87.3%
- viability, T/C [3]: 109%
- viability, T/C [4]: 115%
- viability, T/C [5]: 78.5%
- viability, T/C [6]: 12.7%
- viability, T/C [7]: 60.5%
- viability, T/C [8]: 105%
- viability, T/C [9]: 116%
- viability, T/C [10]: 70.9%
- viability, T/C [11]: 62.2%
- viability, T/C [12]: 15.5%
- viability, T/C [13]: 66.5%
- viability, T/C [14]: 73.7%
- viability, T/C [15]: 76.7%
- viability, T/C [16]: 70%
- viability, T/C [17]: 59.9%
- viability, T/C [18]: 14%
- viability, T/C [19]: 41.2%
- viability, T/C [20]: 70%
- viability, T/C [21]: 40.5%
- viability, T/C [22]: 55.5%
- viability, T/C [23]: 50.8%
- viability, T/C [24]: 11.7%
- viability, T/C [25]: 30.2%
- viability, T/C [26]: 29.2%
- viability, T/C [27]: 24.5%
- viability, T/C [28]: 19.6%
- viability, T/C [29]: 28.4%
- viability, T/C [30]: 7.37%
- viability, T/C [31]: 27.2%
- viability, T/C [32]: 23%
- viability, T/C [33]: 24.6%
- viability, T/C [34]: 27.1%
- viability, T/C [35]: 26.1%
- viability, T/C [36]: 8.52%

- IC50 (second compound 0.0316 µM): > 10000 nM
- IC50 (second compound 0.1 µM): > 10000 nM
- IC50 (second compound 0.316 µM): > 10000 nM
- IC50 (second compound 1 µM): < 31.6 nM
- IC50 (second compound 3.16 µM): < 31.6 nM
- IC50 (second compound 10 µM): < 31.6 nM
SMILES: C=CC(=O)N1CCN(c2nc(=O)n(-c3c(C)ccnc3C(C)C)c3nc(-c4c(O)cccc4F)c(F)cc23)C(C)C1 (stereo unspecified) + Cc1cnc(CNC(=O)c2c(=O)c3ccc(N4CCCN(C)CC4)nc3n3c2sc2ccccc23)cn1
- viability, T/C [1]: 76.1%
- viability, T/C [2]: 59.5%
- viability, T/C [3]: 86.8%
- viability, T/C [4]: 68.1%
- viability, T/C [5]: 98.3%
- viability, T/C [6]: 67.4%
- viability, T/C [7]: 47.9%
- viability, T/C [8]: 63.3%
- viability, T/C [9]: 56.6%
- viability, T/C [10]: 63.3%
- viability, T/C [11]: 63.8%
- viability, T/C [12]: 65.7%
- viability, T/C [13]: 56.4%
- viability, T/C [14]: 59.3%
- viability, T/C [15]: 60%
- viability, T/C [16]: 52%
- viability, T/C [17]: 71.1%
- viability, T/C [18]: 65.1%
- viability, T/C [19]: 37.4%
- viability, T/C [20]: 39.1%
- viability, T/C [21]: 48%
- viability, T/C [22]: 47.5%
- viability, T/C [23]: 48.8%
- viability, T/C [24]: 47.9%
- viability, T/C [25]: 19.2%
- viability, T/C [26]: 21.6%
- viability, T/C [27]: 24.2%
- viability, T/C [28]: 29.7%
- viability, T/C [29]: 23.5%
- viability, T/C [30]: 14.3%
- viability, T/C [31]: 0.21%
- viability, T/C [32]: 0.22%
- viability, T/C [33]: 0.17%
- viability, T/C [34]: 0.25%
- viability, T/C [35]: 0.22%
- viability, T/C [36]: 0.16%
